This passage reports Ki and IC50 results from patent US9434725B2, “5-azaindazole compounds and methods of use” (priority 2012, dated 2016).

Where two headings read alike, the source gives them in different places.

One assay addresses PIM2 (Homo sapiens (Human), UniProt Q9P1W9). Put plainly: Pim kinase binding activity, Caliper LC3000 microfluidic peptide phosphorylation assay, PIM2. It counts as biochemical. Particulars: 10 μM ATP, 90 min, room temperature; read-out: PIM2 LC3K (KI). Summed up: (§1)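 Pim-specific fluorescent peptide phosphorylated in 10 mM HEPES pH 7.2, 10 mM MgCl2, 0.01% Tween 20, 2 mM DTT for 90 min at room temperature, then stopped with EDTA. Product and substrate separated by microfluidic mobility shift; Ki derived from substrate conversion.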

Another assay concerns the target PIM3 (Homo sapiens (Human), UniProt Q86V86). Put plainly: Pim kinase binding activity, Caliper LC3000 microfluidic peptide phosphorylation assay, PIM3. It is filed as biochemical. Particulars: 10 μM ATP, 90 min, room temperature; read-out: PIM3 LC3K (KI). Summed up: as §1
The subject of another assay is BaF3 PIM1 cells. The assay can be described thus: In vitro cell proliferation potency assay (Cell Titer Glo), BaF3 PIM1 cells. It is filed as cell-based, murine. Particulars: read-out: Prolif BaF3_PIM 1 (IC50). As to the method: BaF3 parental line was obtained from the DSMZ repository. BaF3 lines transfected with PIM1 or PIM2 were generated. Mouse IL-3 was purchased from R&D Systems. G418 was purchased from Clontech. Media for BaF3 parental line contained RPMI, 10% FBS, 2 mM L-Glutamine, 2 ng/mL mIL-3. Media for BaF3 PIM1 & 2 lines contained RPMI, 10% FBS, 2 mM L-Glutamine, […]. Media for MM1.S (multiple myeloma cells) line contained RPMI, 10% FBS, 2 mM L-Glutamine.
BaF3, a murine interleukin-3 dependent pro-B cell line, parental cells, BaF3 PIM1 cells, BaF3 PIM2 cells, and MM1.S (multiple myeloma) cells were seeded at 2 k/well, 5 k/well, 5 k/well, and 10 k/well respectively, in a 384-well plate, at 45 μL/well. Test compound was added at 5 μL/well. BaF3 cells (parental and transfected) were incubated overnight, while MM1.S cells were incubated for 72 hours at 37° C., 5% CO2. CELL TITER GLO® Reagent (Promega) was added at 50 μL/well, the plates were incubated for 30 minutes, and their luminescence read on an HT Analyst. IC50/EC50 values for the test compound were calculated.
For orientation: Cellular ATP, detected with luciferase, serves as a proxy for viable cell number.

The next assay deals with PIM1 (Homo sapiens (Human), UniProt P11309). The assay can be described thus: biochemical. It is filed as biochemical. Particulars: 10 μM ATP, 90 min, room temperature; read-out: PIM1 LC3K (KI). The method in brief:
as §1

The mark [1] stands for this setting: Mus musculus, BaF3, BaF3 cells transfected with PIM1, incubated overnight.

PIM2, sequence (Q9P1W9 whole entry): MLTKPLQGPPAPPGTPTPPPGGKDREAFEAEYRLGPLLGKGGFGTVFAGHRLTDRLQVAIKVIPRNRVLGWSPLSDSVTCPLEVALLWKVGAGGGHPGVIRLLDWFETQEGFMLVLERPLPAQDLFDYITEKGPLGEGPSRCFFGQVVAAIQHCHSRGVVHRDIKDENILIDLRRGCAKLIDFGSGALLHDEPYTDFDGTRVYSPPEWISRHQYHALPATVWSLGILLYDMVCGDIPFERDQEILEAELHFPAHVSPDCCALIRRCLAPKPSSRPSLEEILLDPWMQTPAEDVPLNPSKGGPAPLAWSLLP
PIM1, sequence (P11309 whole entry): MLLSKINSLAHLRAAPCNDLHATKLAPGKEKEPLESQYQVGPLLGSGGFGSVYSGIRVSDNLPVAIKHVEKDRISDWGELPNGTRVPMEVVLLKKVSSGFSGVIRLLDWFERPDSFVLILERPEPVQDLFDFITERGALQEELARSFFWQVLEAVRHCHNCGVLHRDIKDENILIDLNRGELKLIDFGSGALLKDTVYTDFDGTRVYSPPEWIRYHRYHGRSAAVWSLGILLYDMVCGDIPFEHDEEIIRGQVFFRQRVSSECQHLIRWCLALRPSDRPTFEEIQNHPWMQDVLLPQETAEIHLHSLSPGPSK

As a reminder, the Ki is the dissociation constant of the complex between target and ligand, obtained from inhibition or displacement. For orientation: IC50 means the concentration at which inhibition is half-maximal. As for `COc1ccc(-n2ncc3cnc(-c4cncc(C)n4)cc32)nc1N1CCNCC(O)C1` (stereo not drawn) [Compound 207, 1-(3-methoxy-6-(6-(6-methylpyrazin-2-yl)-1H-pyrazolo[4,3-c]pyridin-1-yl)pyridin-2-yl)-1,4-diazepan-6-ol], the inhibition constant (Ki) at PIM2 was 3.67 nM; at PIM3 it was 0.093 nM; at PIM1, 0.182 nM. The 50% inhibitory concentration (IC50) in the assay with BaF3 PIM1 cells (setting [1]) was 1500 nM.

As for `Cc1cncc(-c2cc3c(cn2)cnn3-c2cccc(N3CCNC(C)C3)n2)n1` (stereo not drawn) [Compound 169, 1-[6-(3-methylpiperazin-1-yl)-2-pyridyl]-6-(6-methylpyrazin-2-yl)pyrazolo[4,3-c]pyridine], the inhibition constant Ki on PIM2 stood at 1.79 nM; at PIM3, 0.164 nM; on PIM1, 0.228 nM. Further, the concentration for half-maximal inhibition (IC50) with BaF3 PIM1 cells (setting [1]) came out at 457 nM.

As to `Cc1cncc(-c2cc3c(cn2)cnn3-c2cccc(N3C[C@@H](N)C[C@H](F)C3)n2)n1` [Compound 192, (3S,5S)-5-fluoro-1-[6-[6-(6-methylpyrazin-2-yl)pyrazolo[4,3-c]pyridin-1-yl]-2-pyridyl]piperidin-3-amine], the inhibition constant (Ki) stood at 3.35 nM on PIM2, 0.21 nM on PIM3 and 0.428 nM at PIM1. For the same compound, the half-inhibitory concentration (IC50) in the assay on BaF3 PIM1 cells (setting [1]) is 1700 nM.

As to `c1cc(N2CCNCC2)nc(-n2ncc3cnc(-c4cncs4)cc32)c1` [Compound 109, 5-[1-(6-piperazin-1-yl-2-pyridyl)pyrazolo[4,3-c]pyridin-6-yl]thiazole], the Ki was 4.03 nM at PIM2, 0.285 nM at PIM3 and 0.476 nM on PIM1. The 50% inhibitory concentration (IC50) in the assay on BaF3 PIM1 cells (setting [1]) turned out to be 1500 nM.

Turning to `Cc1nc(-c2cc3c(cn2)cnn3-c2cccc(N3CCC[C@H](N)C3)n2)cnc1N` [Compound 209, (S)-5-(1-(6-(3-aminopiperidin-1-yl)pyridin-2-yl)-1H-pyrazolo[4,3-c]pyridin-6-yl)-3-methylpyrazin-2-amine], the Ki at PIM2 was 0.575 nM; at PIM3, 0.011 nM; at PIM1, 0.045 nM. In addition, the IC50 with BaF3 PIM1 cells (setting [1]) is 682 nM.

For the compound `CCc1cncc(-c2cc3c(cn2)cnn3-c2cccc(N3CCNCC(O)C3)n2)n1` (stereo not drawn) [Compound 172, 1-[6-[6-(6-ethylpyrazin-2-yl)pyrazolo[4,3-c]pyridin-1-yl]-2-pyridyl]-1 4-diazepan-6-ol], the values for the Ki at PIM2, on PIM3 and at PIM1 were 1.47 nM, 0.048 nM and 0.034 nM, respectively. For the same compound, the IC50 with BaF3 PIM1 cells (setting [1]) came to 111 nM.

Turning to `O[C@@H]1CNCCN(c2cccc(-n3ncc4cnc(-c5cnn(CC(F)(F)F)c5)cc43)n2)C1` [Compound 188, (R)-1-(6-(6-(1-(2,2,2-Trifluoroethyl)-1H-pyrazol-4-yl)-1H-pyrazolo[4,3-c]pyridin-1-yl)-pyridin-2-yl)-1,4-diazepan-6-ol], the Ki on PIM2 stood at 4.64 nM; on PIM3 it was 0.611 nM; on PIM1, 0.173 nM. Further, the IC50 in the assay on BaF3 PIM1 cells (setting [1]) came out at 418 nM.

Turning to `COc1cncc(-c2cc3c(cn2)cnn3-c2cccc(N3CCNCC3)n2)n1` [Compound 130, 6-(6-methoxypyrazin-2-yl)-1-(6-piperazin-1-yl-2-pyridyl)pyrazolo[4,3-c]pyridine], the inhibition constant Ki at PIM2 was 1.87 nM; at PIM3 it was 0.068 nM; on PIM1 it was 0.113 nM. Also, the IC50 in the assay with BaF3 PIM1 cells (setting [1]) came out at 1500 nM.

Regarding `Cc1cncc(-c2cc3c(cn2)cnn3-c2cccc(N3CCC(N)CC3)n2)n1` [Compound 194, 1-[6-[6-(6-methylpyrazin-2-yl)pyrazolo[4,3-c]pyridin-1-yl]-2-pyridyl]piperidin-4-amine], the results for the Ki at PIM2, at PIM3 and on PIM1 were 3.12 nM, 0.125 nM and 0.243 nM, respectively. For the same compound, the IC50 in the assay with BaF3 PIM1 cells (setting [1]) is 1500 nM.

Take `Cc1cncc(-c2cc3c(cn2)cnn3-c2cccc(N3CCC[C@H](N)C3)n2)n1` [Compound 137, (3S)-1-[6-[6-(6-methylpyrazin-2-yl)pyrazolo[4,3-c]pyridin-1-yl]-2-pyridyl]piperidin-3-amine]: the values for the Ki on PIM2, on PIM3 and on PIM1 were 0.499 nM, 0.038 nM and 0.159 nM, respectively. Further, the IC50 in the assay on BaF3 PIM1 cells (setting [1]) is 2100 nM.

With `Cc1cncc(-c2cc3c(cn2)cnn3-c2cccc(N3CCNC(C)C3)n2)n1` (single isomer, unassigned) [Compound 193, 1-[6-(3-methylpiperazin-1-yl)-2-pyridyl]-6-(6-methylpyrazin-2-yl)pyrazolo[4,3-c]pyridine], the inhibition constant (Ki) came to 0.596 nM at PIM2, 0.035 nM on PIM3 and 0.046 nM at PIM1. In addition, in the assay with BaF3 PIM1 cells (BaF3 cells transfected with PIM1, incubated overnight), the half-inhibitory concentration (IC50) is 1200 nM.

As for `CCc1cncc(-c2cc3c(cn2)cnn3-c2ccc(Cl)c(N3CCC[C@H](N)C3)n2)c1` [Compound 117, (S)-1-(3-chloro-6-(6-(5-ethylpyridin-3-yl)-1H-pyrazolo[4,3-c]pyridin-1-yl)pyridin-2-yl)piperidin-3-amine], the results for the Ki on PIM2, on PIM3 and at PIM1 were 1.03 nM, 0.098 nM and 0.141 nM, respectively. Also, the 50% inhibitory concentration (IC50) in the assay on BaF3 PIM1 cells (setting [1]) was 2900 nM.

Consider `OCCn1cc(-c2cc3c(cn2)cnn3-c2cccc(N3CCCNCC3)n2)cn1` [Compound 152, 2-(4-(1-(6-(1,4-Diazepan-1-yl)pyridin-2-yl)-1H-pyrazolo[4,3-c]pyridin-6-yl)-1H-pyrazol-1-yl)ethanol], for which the Ki on PIM2 was 5.38 nM; on PIM3 it was 0.134 nM; on PIM1 it was 0.215 nM. The half-maximal inhibitory concentration (IC50) in the assay on BaF3 PIM1 cells (setting [1]) is 1500 nM.

Consider `O[C@H]1CNCCN(c2cccc(-n3ncc4cnc(-c5cnn(CC(F)(F)F)c5)cc43)n2)C1` [Compound 189, (S)-1-(6-(6-(1-(2,2,2-Trifluoroethyl)-1H-pyrazol-4-yl)-1H-pyrazolo[4,3-c]pyridin-1-yl)-pyridin-2-yl)-1,4-diazepan-6-ol], for which the Ki on PIM2 worked out at 0.373 nM; at PIM3 it was 0.089 nM; on PIM1 it was 0.038 nM. For the same compound, the half-maximal inhibitory concentration (IC50) with BaF3 PIM1 cells (setting [1]) was 181 nM.

Turning to `Cc1cncc(-c2cc3c(cn2)cnn3-c2cccc(N3CCC4(CCCN4)CC3)n2)n1` [Compound 216, 8-[6-[6-(6-methylpyrazin-2-yl)pyrazolo[4,3-c]pyridin-1-yl]-2-pyridyl]-1 8-diazaspiro[4.5]decane], the figures for the Ki at PIM2, at PIM3 and at PIM1 were 2.95 nM, 0.094 nM and 0.223 nM, respectively. Further, the half-inhibitory concentration (IC50) in the assay with BaF3 PIM1 cells (setting [1]) is 715 nM.

For the compound `Cc1cncc(-c2cc3c(cn2)cnn3-c2ccc(C3CC3)c(N3CCC[C@H](N)C3)n2)n1` [Compound 181, (S)-1-(3-cyclopropyl-6-(6-(6-methylpyrazin-2-yl)-1H-pyrazolo[4,3-c]pyridin-1-yl)pyridin-2-yl)piperidin-3-amine], the figures for the Ki on PIM2, on PIM3 and at PIM1 were 0.077 nM, 0.019 nM and 0.014 nM, respectively. Also, in the assay with BaF3 PIM1 cells (setting [1]), the 50% inhibitory concentration (IC50) was found to be 214 nM.

`c1cc(N2CCNCC2)nc(-n2ncc3cnc(-c4cncc(C5CC5)n4)cc32)c1` [Compound 165, 6-(6-cyclopropylpyrazin-2-yl)-1-(6-piperazin-1-yl-2-pyridyl)pyrazolo[4,3-c]pyridine]: the Ki on PIM2 turned out to be 1.14 nM; on PIM3, 0.174 nM; at PIM1, 0.063 nM. Also, in the assay on BaF3 PIM1 cells (setting [1]), the IC50 is 139 nM.

As to `Cc1cncc(-c2cc3c(cn2)cnn3-c2cccc(N3CCC[C@H](O)C3)n2)n1` [Compound 299, (S)-1-(6-(6-(6-methylpyrazin-2-yl)-1H-pyrazolo[4,3-c]pyridin-1-yl)pyridin-2-yl)piperidin-3-ol], the inhibition constant (Ki) at PIM2 worked out at 4.17 nM; at PIM3, 0.248 nM; at PIM1, 0.419 nM. In the assay on BaF3 PIM1 cells (setting [1]), the IC50 turned out to be 1600 nM.

On to `Cc1cc(-c2cc3c(cn2)cnn3-c2cccc(N3CCC[C@H](N)C3)n2)sn1` [Compound 124, (3S)-1-[6-[6-(3-methylisothiazol-5-yl)pyrazolo[4,3-c]pyridin-1-yl]-2-pyridyl]piperidin-3-amine], for which the Ki at PIM2 came to 3.48 nM; at PIM3 it was 0.14 nM; on PIM1, 0.71 nM. Also, the IC50 in the assay with BaF3 PIM1 cells (setting [1]) is 804 nM.

In the case of `Cc1cncc(-c2cc3c(cn2)cnn3-c2cccc(N3CCC4(CNC4)C3)n2)n1` [Compound 214, 1-[6-(2 6-diazaspiro[3.4]octan-6-yl)-2-pyridyl]-6-(6-methylpyrazin-2-yl)pyrazolo[4,3-c]pyridine], the inhibition constant Ki stood at 2.65 nM at PIM2, 0.199 nM on PIM3 and 0.385 nM on PIM1. Besides, the 50% inhibitory concentration (IC50) in the assay with BaF3 PIM1 cells (setting [1]) was found to be 1000 nM.

Regarding `Cc1cncc(-c2cc3c(cn2)cnn3-c2cccc(NC3CCNCC3)n2)n1` [Compound 190, 6-[6-(6-methylpyrazin-2-yl)pyrazolo[4,3-c]pyridin-1-yl]-N-(4-piperidyl)pyridin-2-amine], the Ki at PIM2 turned out to be 1.28 nM; on PIM3, 0.023 nM; on PIM1, 0.06 nM. Further, the IC50 in the assay with BaF3 PIM1 cells (setting [1]) stood at 235 nM.
